Columns and labels:
Adrenergic α2C = biological target: T1, Adrenergic α2C (Homo sapiens, UniProt P18825); assay: Receptor activities, Ki (Table 1); assay type: binding
T1 sequence (P18825 1-462): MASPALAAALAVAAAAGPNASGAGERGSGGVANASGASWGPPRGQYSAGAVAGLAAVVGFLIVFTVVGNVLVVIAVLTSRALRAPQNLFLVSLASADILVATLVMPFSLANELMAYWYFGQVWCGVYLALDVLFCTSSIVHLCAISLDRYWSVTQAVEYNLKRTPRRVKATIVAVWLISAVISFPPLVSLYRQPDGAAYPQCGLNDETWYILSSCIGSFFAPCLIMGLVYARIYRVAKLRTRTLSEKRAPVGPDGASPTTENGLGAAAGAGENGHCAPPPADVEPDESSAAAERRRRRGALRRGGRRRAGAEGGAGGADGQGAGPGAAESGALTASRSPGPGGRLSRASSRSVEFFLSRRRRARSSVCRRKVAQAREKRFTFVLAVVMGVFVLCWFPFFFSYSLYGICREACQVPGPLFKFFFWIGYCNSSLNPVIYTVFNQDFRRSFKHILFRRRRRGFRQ

Serotonin 5-HT2C = biological target: T2, Serotonin 5-HT2C (Homo sapiens, UniProt P28335); assay: Receptor activities, Ki (Table 1); assay type: binding
T2 sequence (P28335 33-458): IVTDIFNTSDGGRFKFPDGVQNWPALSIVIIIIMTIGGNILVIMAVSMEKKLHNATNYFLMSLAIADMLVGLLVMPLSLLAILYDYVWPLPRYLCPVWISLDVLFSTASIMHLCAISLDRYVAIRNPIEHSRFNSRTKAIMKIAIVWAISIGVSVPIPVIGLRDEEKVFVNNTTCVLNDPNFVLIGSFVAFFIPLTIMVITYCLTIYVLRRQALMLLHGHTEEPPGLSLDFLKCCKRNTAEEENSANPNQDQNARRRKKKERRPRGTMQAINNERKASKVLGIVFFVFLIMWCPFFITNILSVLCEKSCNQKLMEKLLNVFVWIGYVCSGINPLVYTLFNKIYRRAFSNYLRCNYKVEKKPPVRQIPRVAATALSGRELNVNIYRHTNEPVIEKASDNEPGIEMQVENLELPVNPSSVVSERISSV

[1] = system: people with generalized anxiety disorder (GAD); assay: Randomized double-blind placebo-controlled GAD study, adverse events; assay type: in vivo, human
Procedure: Example 12. Efficacy and safety study of the oral drug of this invention made as a pharmaceutical composition of this invention in capsules. […] During the study, 3 scheduled visits were conducted in Week 2, Week 4, and Week 8 to assess the effectiveness and safety of the therapy as well as drug inventory and administration. During all of those visits, the patient's diary was checked, a drug inventory was made and the patients' compliance was assessed. In addition, adverse events, concomitant therapy, and vital signs were evaluated, urine drug screen was performed, and assessments using Hamilton Anxiety Rating Scale (HARS), Hamilton Depression Scale (HAMD), Clinical Global Impression-Severity (CGI-S), Clinical Global Impression-Improvement (CGI-I), and Visual Analog Scale (VAS) were made; women of child-bearing potential will take a urine pregnancy test. Also, during visits at Week 4 and Week 8 a physical examination was performed, body weight was measured, an ECG was performed in 12 leads and blood and urine samples were obtained for laboratory tests, namely: urinalysis and biochemical blood analysis, PK analysis before and 1 hour after taking the study drug (SD), and urinalysis. At Week 4, a blood sample was also obtained for genotyping by CYP2D6. At Week 8, treatment in the groups was completed, and all patients were prescribed a placebo to be taken during the follow-up period, which lasted 1 week. During this time, a possible development of SD withdrawal syndrome against the background of placebo was evaluated. During the visit at Week 9, the patient's diary was checked, a drug inventory was made and the patients' compliance was assessed. In addition, adverse events, concomitant therapy, and vital signs were evaluated, urine drug screen was performed, and assessments using the Hamilton Anxiety Rating Scale (HARS), Hamilton Depression Scale (HAMD), Clinical Global Impression-Severity (CGI-S), Clinical Global Impression-Improvement (CGI-I), and Visual Analog Scale (VAS) were made; women of child-bearing age will take a urine pregnancy test. At this point, the patients' participation in the study was completed, and they received recommendations for further treatment as part of standard GAD therapy.

`Cc1ccc2c(c1)c1c(n2CCc2ccccc2)CCN(C)C1.Cl` [A•HCl, 2,8-dimethyl-5-(2-phenylethyl)-2,3,4,5-tetrahydro-1H-pyrido[4,3-b]indole hydrochloride] was tested, and the Ki (Adrenergic α2C) was 3.55 nM, the Ki (Serotonin 5-HT2C) was 1.17 nM and the “Adverse effect Bitter taste in mouth, pain in the left hypochondrium, %” value ([1]; 40 mg/day, 42 patients) was 0.0%. The “Adverse effect Bitter taste in mouth, pain in the left hypochondrium, N (number of people)” value ([1]; 40 mg/day, 42 patients) was 0, the “Adverse effect Constipation, %” value ([1]; 40 mg/day, 42 patients) was 0.0% and the “Adverse effect Constipation, N (number of people)” value ([1]; 40 mg/day, 42 patients) was 0. The “Adverse effect Daytime drowsiness, %” value ([1]; 40 mg/day, 42 patients) was 2.4%, the “Adverse effect Daytime drowsiness, N (number of people)” value ([1]; 40 mg/day, 42 patients) was 1 and the “Adverse effect Decreased appetite, %” value ([1]; 40 mg/day, 42 patients) was 2.4%. For the same compound, the “Adverse effect Decreased appetite, N (number of people)” value ([1]; 40 mg/day, 42 patients) was 1, the “Adverse effect Dizziness, %” value ([1]; 40 mg/day, 42 patients) was 0.0% and the “Adverse effect Dizziness, N (number of people)” value ([1]; 40 mg/day, 42 patients) was 0. The “Adverse effect Elevated creatinine kinase level, %” value ([1]; 40 mg/day, 42 patients) was 0.0%, the “Adverse effect Elevated creatinine kinase level, N (number of people)” value ([1]; 40 mg/day, 42 patients) was 0 and the “Adverse effect Headache, %” value ([1]; 40 mg/day, 42 patients) was 4.8%. The “Adverse effect Headache, N (number of people)” value ([1]; 40 mg/day, 42 patients) was 2, the “Adverse effect Impaired concentration, %” value ([1]; 40 mg/day, 42 patients) was 0.0% and the “Adverse effect Impaired concentration, N (number of people)” value ([1]; 40 mg/day, 42 patients) was 0. The “Adverse effect Increased psychic tension, %” value ([1]; 40 mg/day, 42 patients) was 0.0%, the “Adverse effect Increased psychic tension, N (number of people)” value ([1]; 40 mg/day, 42 patients) was 0 and the “Adverse effect Insomnia, %” value ([1]; 40 mg/day, 42 patients) was 2.4%. For the same compound, the “Adverse effect Insomnia, N (number of people)” value ([1]; 40 mg/day, 42 patients) was 1, the “Adverse effect Jaw reduction, %” value ([1]; 40 mg/day, 42 patients) was 0.0% and the “Adverse effect Jaw reduction, N (number of people)” value ([1]; 40 mg/day, 42 patients) was 0. The “Adverse effect Low hemoglobin level, %” value ([1]; 40 mg/day, 42 patients) was 2.4%, the “Adverse effect Low hemoglobin level, N (number of people)” value ([1]; 40 mg/day, 42 patients) was 1 and the “Adverse effect Nausea, %” value ([1]; 40 mg/day, 42 patients) was 0.0%. The “Adverse effect Nausea, N (number of people)” value ([1]; 40 mg/day, 42 patients) was 0, the “Adverse effect Nocturnal awakening, %” value ([1]; 40 mg/day, 42 patients) was 0.0% and the “Adverse effect Nocturnal awakening, N (number of people)” value ([1]; 40 mg/day, 42 patients) was 0. For the same compound, the “Adverse effect Sleepiness, %” value ([1]; 40 mg/day, 42 patients) was 2.4%, the “Adverse effect Sleepiness, N (number of people)” value ([1]; 40 mg/day, 42 patients) was 1 and the “Adverse effect Tension in the body (back, arms, legs), %” value ([1]; 40 mg/day, 42 patients) was 0.0%. For the same compound, the “Adverse effect Tension in the body (back, arms, legs), N (number of people)” value ([1]; 40 mg/day, 42 patients) was 0, the “Adverse effect Tingling in the hands, %” value ([1]; 40 mg/day, 42 patients) was 0.0% and the “Adverse effect Tingling in the hands, N (number of people)” value ([1]; 40 mg/day, 42 patients) was 0. For the same compound, the “Adverse effect Weakness, %” value ([1]; 40 mg/day, 42 patients) was 0.0%, the “Adverse effect Weakness, N (number of people)” value ([1]; 40 mg/day, 42 patients) was 0 and the “Adverse effect Bitter taste in mouth, pain in the left hypochondrium, %” value ([1]; 60 mg/day, 44 patients) was 2.3%. The “Adverse effect Bitter taste in mouth, pain in the left hypochondrium, N (number of people)” value ([1]; 60 mg/day, 44 patients) was 1, the “Adverse effect Constipation, %” value ([1]; 60 mg/day, 44 patients) was 2.3% and the “Adverse effect Constipation, N (number of people)” value ([1]; 60 mg/day, 44 patients) was 1. For the same compound, the “Adverse effect Daytime drowsiness, %” value ([1]; 60 mg/day, 44 patients) was 0.0%, the “Adverse effect Daytime drowsiness, N (number of people)” value ([1]; 60 mg/day, 44 patients) was 0 and the “Adverse effect Decreased appetite, %” value ([1]; 60 mg/day, 44 patients) was 0.0%. For the same compound, the “Adverse effect Decreased appetite, N (number of people)” value ([1]; 60 mg/day, 44 patients) was 0, the “Adverse effect Dizziness, %” value ([1]; 60 mg/day, 44 patients) was 9.1% and the “Adverse effect Dizziness, N (number of people)” value ([1]; 60 mg/day, 44 patients) was 4. The “Adverse effect Elevated creatinine kinase level, %” value ([1]; 60 mg/day, 44 patients) was 2.3%, the “Adverse effect Elevated creatinine kinase level, N (number of people)” value ([1]; 60 mg/day, 44 patients) was 1 and the “Adverse effect Headache, %” value ([1]; 60 mg/day, 44 patients) was 13.6%. For the same compound, the “Adverse effect Headache, N (number of people)” value ([1]; 60 mg/day, 44 patients) was 6, the “Adverse effect Impaired concentration, %” value ([1]; 60 mg/day, 44 patients) was 2.3% and the “Adverse effect Impaired concentration, N (number of people)” value ([1]; 60 mg/day, 44 patients) was 1. For the same compound, the “Adverse effect Increased psychic tension, %” value ([1]; 60 mg/day, 44 patients) was 4.5%, the “Adverse effect Increased psychic tension, N (number of people)” value ([1]; 60 mg/day, 44 patients) was 2 and the “Adverse effect Insomnia, %” value ([1]; 60 mg/day, 44 patients) was 0.0%. For the same compound, the “Adverse effect Insomnia, N (number of people)” value ([1]; 60 mg/day, 44 patients) was 0, the “Adverse effect Jaw reduction, %” value ([1]; 60 mg/day, 44 patients) was 2.3% and the “Adverse effect Jaw reduction, N (number of people)” value ([1]; 60 mg/day, 44 patients) was 1. For the same compound, the “Adverse effect Low hemoglobin level, %” value ([1]; 60 mg/day, 44 patients) was 0.0%, the “Adverse effect Low hemoglobin level, N (number of people)” value ([1]; 60 mg/day, 44 patients) was 0 and the “Adverse effect Nausea, %” value ([1]; 60 mg/day, 44 patients) was 4.5%. The “Adverse effect Nausea, N (number of people)” value ([1]; 60 mg/day, 44 patients) was 2, the “Adverse effect Nocturnal awakening, %” value ([1]; 60 mg/day, 44 patients) was 2.3% and the “Adverse effect Nocturnal awakening, N (number of people)” value ([1]; 60 mg/day, 44 patients) was 1. The “Adverse effect Sleepiness, %” value ([1]; 60 mg/day, 44 patients) was 15.9%, the “Adverse effect Sleepiness, N (number of people)” value ([1]; 60 mg/day, 44 patients) was 7 and the “Adverse effect Tension in the body (back, arms, legs), %” value ([1]; 60 mg/day, 44 patients) was 2.3%. For the same compound, the “Adverse effect Tension in the body (back, arms, legs), N (number of people)” value ([1]; 60 mg/day, 44 patients) was 1, the “Adverse effect Tingling in the hands, %” value ([1]; 60 mg/day, 44 patients) was 2.3% and the “Adverse effect Tingling in the hands, N (number of people)” value ([1]; 60 mg/day, 44 patients) was 1. The “Adverse effect Weakness, %” value ([1]; 60 mg/day, 44 patients) was 6.8%, the “Adverse effect Weakness, N (number of people)” value ([1]; 60 mg/day, 44 patients) was 3 and the “Safety profile and tolerability in patients” value ([1]; GAD patients, 40 and 60 mg/day, 8 weeks) was “favorable safety profile and good tolerability”. The Side effects observed ([1]; dose of 60 mg, GAD patients) was “headache, drowsiness, dizziness, weakness, nausea, increased anxiety”.

Reference: patent US12357619B2, “Noradrenergic and specific serotonergic anxiolytic and antidepressant, method for the production and use thereof” (ALLA CHEM, LLC, priority 2020, dated 2025)
